Patent US4220644A, “7-Acylamino-3-(substituted tetrazolyl thiomethyl) cephalosporins” (SmithKline Corporation, priority 1976, dated 1980)
Values after ≈ are worked out from the molar mass of the structure shown. Where two headings read alike, the source gives them in different places.

Experiments:
S. aureus HH 127 = experiment: MIC in vitro (Table 1), S. aureus HH 127; assay type: cell-based; settings: Staphylococcus aureus
Text: (§1) Compound names corresponding to numbers are given in the experimental section. For comparative purposes, data for cephamandole, which is 7-mandelamido-3-(1-methyltetrazol-5-ylthiomethyl)-3-cephem-4-carboxylic acid, is also given in Tables 1 and 2.

S. aureus SK 23390 = experiment: MIC in vitro (Table 1), S. aureus SK 23390; assay type: cell-based; settings: Staphylococcus aureus
Text: as §1

Strep. Faecalis HH 34358 = experiment: MIC in vitro (Table 1), Strep. Faecalis HH 34358; assay type: cell-based; settings: Enterococcus faecalis
Text: as §1

E. coli SK 12140 = experiment: MIC in vitro (Table 1), E. coli SK 12140; assay type: cell-based; settings: Escherichia coli, SK12140, in vitro
Text: as §1

E. coli HH 33779 = experiment: MIC in vitro (Table 1), E. coli HH 33779; assay type: cell-based; settings: Escherichia coli
Text: as §1

Kleb. pneumo. SK 4200 = experiment: MIC in vitro (Table 1), Kleb. pneumo. SK 4200; assay type: cell-based
Text: as §1

Kleb. pneumo. SK 1200 = experiment: MIC in vitro (Table 1), Kleb. pneumo. SK 1200; assay type: cell-based
Text: as §1

Pseudo. sp. HH 63 = experiment: MIC in vitro (Table 1), Pseudo. sp. HH 63; assay type: cell-based; settings: in vitro, Pseudo. sp. HH 63; read-out: MIC
Text: as §1, with “The compounds of Formula I have antibacterial activity against both Gram-positive and Gram-negative organisms. […] Compound” for “Compound”

Salmonella ATCC 12176 = experiment: MIC in vitro (Table 1), Salmonella ATCC 12176; assay type: cell-based
Text: as §1, with “The compounds of Formula I have antibacterial activity against both Gram-positive and Gram-negative organisms. […] Compound” for “Compound”

Shigella HH 117 = experiment: MIC in vitro (Table 1), Shigella HH 117; assay type: cell-based; settings: Shigella, HH117, in vitro, read-out: MIC
Text: as §1, with “The compounds of Formula I have antibacterial activity against both Gram-positive and Gram-negative organisms. […] Compound” for “Compound”

[1] = system: Entero. aerog. ATCC 13048; experiment: MIC in vitro (Table 1), Entero. aerog. ATCC 13048; assay type: cell-based
Text: as §1

Entero. cloacae HH 31254 = experiment: MIC in vitro (Table 1), Entero. cloacae HH 31254; assay type: cell-based; settings: Enterobacter cloacae
Text: as §1

Proteus morgani 179 = experiment: MIC in vitro (Table 1), Proteus morgani 179; assay type: cell-based; settings: read-out: MIC
Text: as §1

E. coli 12140 = experiment: In vivo mouse protection (Table 2), E. coli 12140
Text: as §1

Kleb. pneumo. 4200 = experiment: In vivo mouse protection (Table 2), Kleb. pneumo. 4200
Text: as §1

Serra. Marc. ATCC 13880 = experiment: MIC in vitro (Table 1), Serra. Marc. ATCC 13880; assay type: cell-based
Text: as §1

[2] = HH127, in vitro, S. aureus HH 127, read-out: MIC
[3] = in vitro, Strep. Faecalis HH 34358, read-out: MIC
[4] = HH33779, in vitro, E. coli HH 33779, read-out: MIC
[5] = Salmonella, ATCC12176, in vitro, read-out: MIC
[6] = in vitro, Entero. aerog. ATCC 13048, read-out: MIC
[7] = Escherichia coli, 12140, sc, E. coli 12140, s.c.
[8] = in vitro, Kleb. pneumo. SK 4200, read-out: MIC
[9] = HH31254, in vitro, Entero. cloacae HH 31254, read-out: MIC
[10] = Escherichia coli, 12140, po, E. coli 12140, p.o.
[11] = SK23390, in vitro, S. aureus SK 23390, read-out: MIC

Structure (SMILES) | MIC (S. aureus HH 127; [2]) [µg/mL] | MIC (S. aureus SK 23390; SK23390) [µg/mL] | MIC (Strep. Faecalis HH 34358; [3]) [µg/mL] | MIC (E. coli SK 12140; read-out: MIC) [µg/mL] | MIC (E. coli HH 33779; [4]) [µg/mL] | MIC (Kleb. pneumo. SK 4200) [µg/mL] | MIC (Kleb. pneumo. SK 1200; read-out: MIC) [µg/mL] | MIC (Pseudo. sp. HH 63) [µg/mL] | MIC (Salmonella ATCC 12176; [5]) [µg/mL] | MIC (Shigella HH 117) [µg/mL] | MIC [1, 6] [µg/mL] | MIC (Entero. cloacae HH 31254; HH31254) [µg/mL] | MIC (Proteus morgani 179) [µg/mL] | ED50 (E. coli 12140; [7]) [mg/kg] | ED50 (Kleb. pneumo. 4200; sc, Kleb. pneumo. 4200, s.c.) [mg/kg] | MIC (S. aureus HH 127; HH127) [µg/mL] | MIC (Kleb. pneumo. SK 1200) [µg/mL] | MIC (Entero. cloacae HH 31254; [9]) [µg/mL] | ED50 (E. coli 12140; [10]) [mg/kg] | MIC (S. aureus SK 23390; [11]) [µg/mL] | further results
O=C(O)CCCCCn1nnnc1SCC1=C(C(=O)O)N2C(=O)C(NC(=O)[C@H](O)c3ccccc3)[C@H]2SC1 (stereo partly drawn) [XIII, 7-D-Mandelamido-3-[1-(5-carboxypentyl)tetrazol-5-ylthiomethyl]-3-cephem-4-carboxylic acid] | 3.1 (≈ 5.51 µM) | 0.8 (≈ 1.42 µM) | 25 (≈ 44.4 µM) | 1.6 (≈ 2.84 µM) | 3.1 (≈ 5.51 µM) | 0.8 (≈ 1.42 µM) | 1.6 (≈ 2.84 µM) | > 200 | 1.6 (≈ 2.84 µM) | 0.8 (≈ 1.42 µM) | 6.3 (≈ 11.2 µM) | 0.8 (≈ 1.42 µM) | 1.6 (≈ 2.84 µM) | 1.56 | 0.54 | – | – | – | – | – | –
O=C(O)CCCn1nnnc1SCC1=C(C(=O)O)N2C(=O)C(NC(=O)[C@H](O)c3ccccc3)[C@H]2SC1 (stereo partly drawn) [XII, 7-D-Mandelamido-3-[1-(3-carboxypropyl)tetrazol-5-ylthiomethyl]-3-cephem-4-carboxylic acid] | – | 0.4 (≈ 0.748 µM) | – | 1.6 (≈ 2.99 µM) | 1.6 (≈ 2.99 µM) | – | 0.8 (≈ 1.5 µM) | > 200 | 0.4 (≈ 0.748 µM) | 0.4 (≈ 0.748 µM) | – | – | – | 1.84 | 2.9 | 3.1 (≈ 5.8 µM) | 1.6 (≈ 2.99 µM) | 0.8 (≈ 1.5 µM) | > 50 | – | MIC (Strep. Faecalis HH 34358): 12.5 µg/mL (≈ 23.4 µM); MIC (Kleb. pneumo. SK 4200; [8]): 1.6 µg/mL (≈ 2.99 µM); MIC (Salmonella ATCC 12176; in vitro): 0.8 µg/mL (≈ 1.5 µM); MIC [1]: 3.1 µg/mL (≈ 5.8 µM); MIC (Serra. Marc. ATCC 13880): 12.5 µg/mL (≈ 23.4 µM)
NC(=O)CCn1nnnc1SCC1=C(C(=O)O)N2C(=O)C(NC(=O)[C@H](N)c3ccc(O)cc3)[C@H]2SC1 (stereo partly drawn) [X, 7-(D-α-Amino-4-hydroxyphenylacetamido)-3-[1-(2-carbamoylethyl)tetrazol-5-ylthiomethyl]-3-cephem-4-carboxylic acid] | – | – | 25 (≈ 46.8 µM) | – | – | 1.6 (≈ 2.99 µM) | 3.1 (≈ 5.8 µM) | > 200 | 0.8 (≈ 1.5 µM) | 1.6 (≈ 2.99 µM) | – | 1.6 (≈ 2.99 µM) | 25 (≈ 46.8 µM) | 0.78 | 0.62 | 6.3 (≈ 11.8 µM) | – | – | 25 | 12.5 (≈ 23.4 µM) | MIC (E. coli SK 12140): 1.6 µg/mL (≈ 2.99 µM); MIC (E. coli HH 33779; HH33779): 1.6 µg/mL (≈ 2.99 µM); ED50 (Kleb. pneumo. 4200; po, Kleb. pneumo. 4200, p.o.): 15.6 mg/kg
N[C@@H](C(=O)NC1C(=O)N2C(C(=O)O)=C(CSc3nnnn3CC(=O)O)CS[C@H]12)c1ccc(O)cc1 (stereo partly drawn) [II, 7-(D-α-Amino-4-hydroxyphenylacetamido)-3-(1-carboxymethyl-tetrazol-5-ylthiomethyl)-3-cephem-4-carboxylic acid] | 12.5 (≈ 24 µM) | – | 100 (≈ 192 µM) | 3.1 (≈ 5.94 µM) | 12.5 (≈ 24 µM) | – | – | > 200 | 1.6 (≈ 3.07 µM) | 6.3 (≈ 12.1 µM) | 25 (≈ 47.9 µM) | – | > 200 | – | – | – | 6.3 (≈ 12.1 µM) | 1.6 (≈ 3.07 µM) | – | 12.5 (≈ 24 µM) | MIC (Kleb. pneumo. SK 4200; [8]): 1.6 µg/mL (≈ 3.07 µM); MIC (Serra. Marc. ATCC 13880; in vitro, Serra. Marc. ATCC 13880, read-out: MIC): > 200 µg/mL; ED50 (Kleb. pneumo. 4200; po, Kleb. pneumo. 4200, p.o.): 13.2 mg/kg
NC(=O)CCCn1nnnc1SCC1=C(C(=O)O)N2C(=O)C(NC(=O)CSC(F)(F)F)[C@H]2SC1 (stereo partly shown) [XX, 7-Trifluoromethylmercaptoacetamido-3-[1-(3-carbamoylpropyl)tetrazol-5-ylthiomethyl]-3-cephem-4-carboxylic acid] | 0.4 (≈ 0.739 µM) | – | 6.3 (≈ 11.6 µM) | 0.8 (≈ 1.48 µM) | 0.8 (≈ 1.48 µM) | 0.4 (≈ 0.739 µM) | – | > 200 | 0.2 (≈ 0.369 µM) | 0.2 (≈ 0.369 µM) | – | – | 12.5 (≈ 23.1 µM) | 0.7 | – | – | 0.4 (≈ 0.739 µM) | 0.8 (≈ 1.48 µM) | 21.5 | 0.2 (≈ 0.369 µM) | MIC [1]: 3.1 µg/mL (≈ 5.72 µM)
